Legend:
Assay type in all cases: cell-based
E. coli ATCC25922 [1] = experiment: Antibacterial activity in combination with minocycline (growth inhibition); details: Escherichia coli, minocycline 0.25 μg/mL, OD625 23 h minus 1 h, read-out: residual growth of E. coli ATCC25922 (% of uninhibited control) with minocycline; for activity at 25 µM: ATCC25922, compound at 25 μM; for activity at 50 µM: ATCC25922, compound at 50 μM
Summary of the method: (§1)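 Test compound combined with fixed subinhibitory partner antibiotic: linezolid 128 μg/mL for either strain, minocycline 0.25 μg/mL (E. coli) or 8 μg/mL (P. aeruginosa), in caMHB shaken at 37 °C. Residual growth as % of inhibitor-free control, from OD625 at 23 h minus 1 h.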

P. aeruginosa PAO1 [2] = experiment: as above; details: Pseudomonas aeruginosa, PAO1, compound at 50 μM; minocycline 8 μg/mL; OD625 23 h minus 1 h; read-out: residual growth of P. aeruginosa PAO1 (% of uninhibited control) with minocycline
Summary of the method: as §1

P. aeruginosa PAO1 [3] = experiment: Antibacterial activity in combination with linezolid (growth inhibition); details: Pseudomonas aeruginosa, PAO1, compound at 50 μM; linezolid 128 μg/mL; OD625 23 h minus 1 h; read-out: residual growth of P. aeruginosa PAO1 (% of uninhibited control) with linezolid
Protocol: (§2) Antibacterial activity in combination with minocycline or with linezolid
(§3) Inhibition of growth was measured with E. coli ATCC25922 and P. aeruginosa PAO1 in a 96-well plate format. Cation-adjusted Müller-Hinton broth (caMHB) was inoculated with an overnight culture and incubated at 37° C. on a shaker until OD625 reached 0.6 to 0.7. Density was adjusted to OD600=0.5 by addition of caMHB. 35 μL of the suspension were diluted to 35 mL with caMHB and supplemented with minocycline at the subinhibitory doses of 0.25 μg/mL for E. coli and 8 μg/mL for P. aeruginosa or with linezolid at the subinhibitory dose of 128 μg/mL for E. coli and P. aeruginosa. Each well contained 1 μL of test compound in 100 μL caMHB with minocycline or with linezolid.
(§4) Plates were incubated at 37° C. on a plate shaker. OD625 was measured at 1 h, 6 h, and at 23 h.
(§5) The difference between OD at 23 h and at 1 h was taken as measure for cell density and compared to controls without inhibitor (i.e. uninhibited control). Results were expressed as residual growth (% of uninhibited control). Enhancement of minocycline or linezolid activity caused reduced residual growth.

E. coli ATCC25922 [4] = experiment: as above; details: Escherichia coli, ATCC25922, compound at 50 μM; linezolid 128 μg/mL; OD625 23 h minus 1 h; read-out: residual growth of E. coli ATCC25922 (% of uninhibited control) with linezolid
Protocol: as §2, §3, §4, §5

SMILES	activity at 25 µM (E. coli ATCC25922 [1])	activity at 50 µM (P. aeruginosa PAO1 [3])	activity at 50 µM (E. coli ATCC25922 [4])	other results
NCC1CCC(CNCc2cccc(OCc3ccc(Cl)cc3Br)c2)N1 (stereo not drawn) [Example 192]	≤ 10%	≤ 50%	–	activity at 50 µM (P. aeruginosa PAO1 [2]): ≤ 50%
N#Cc1cncc(/C=C/c2cc(OCc3ccccn3)cc(CNCC3CCNC3)n2)c1 (stereo not drawn) [Example 482]	–	–	≤ 50%	–
C=CCOc1cc(/C=C/c2ccc(Cl)cc2Br)cc(C(=O)NCCN(CC2CNC2)CC2CNC2)c1 [Example 447]	≤ 10%	–	≤ 50%	–
Brc1ncccc1COc1cccc(CNCC2CNC2)c1 [Example 48]	–	–	≤ 50%	–
C(=C\c1cc(CNCC2CNC2)cc(OCCN2CCOCC2)c1)/c1cccnc1 [Example 442]	–	–	≤ 50%	–
N#Cc1ccc(COc2ccc(CNCC3CNC3)cc2)cc1 [Example 76]	–	–	≤ 50%	–
Clc1ccc(COc2cc(CNCC3CNC3)cc(OCC3CC3)c2)c(Cl)c1 [Example 166]	≤ 10%	≤ 50%	–	–
CC(C)(C)c1ccc(COc2cc(CNCC3CNC3)cc(C(F)(F)F)c2)cc1 [Example 273]	≤ 10%	≤ 50%	–	–
CC(C)COc1cc(/C=C/c2ccc(C(N)=O)cc2)cc(CNCC2CCNC2)c1 (stereo not drawn) [Example 337]	≤ 10%	≤ 50%	–	–
O=C(NCCN(CC1CNC1)CC1CNC1)c1cc(CNC(=O)c2cccnc2)cc(OCCc2ccncc2)c1 [Example 507, N-[[3-[2-[bis(azetidin-3-ylmethyl)amino]ethylcarbamoyl]-5-[2-(4-pyridyl)ethoxyl]phenyl]methyl]pyridine-3-carboxamide]	–	–	≤ 50%	activity at 50 µM (P. aeruginosa PAO1 [2]): ≤ 50%
N#Cc1cncc(/C=C/c2cc(CNCC3CCNC3)cc(OCCN3CCOCC3)c2)c1 (stereo not drawn) [Example 484, 5-[(E)-2-[3-(2-morpholinoethoxy)-5-[(pyrrolidin-3-ylmethylamino)methyl]phenyl]vinyl]pyridine-3-carbonitrile]	–	–	≤ 50%	–
CS(=O)(=O)c1ccc(COc2ccc(CNCC3CNC3)cc2)c(Cl)c1 [Example 78]	–	–	≤ 50%	–
O=C(Nc1ccc(CNCC2CCNC2)cc1Cl)c1ccc(C(F)(F)F)cc1C(F)(F)F (stereo not drawn) [Example 160]	–	–	≤ 50%	–
C=CCOc1cc(/C=C/c2cncc(C(=O)N(C)C)c2)cc(CNCC2CCNC2)c1 (stereo not drawn) [Example 467]	–	≤ 50%	–	activity at 50 µM (P. aeruginosa PAO1 [2]): ≤ 50%
CC(C)Oc1cc(C[N+](C)(C)CC2CCNC2)cc(OCc2ccc(Cl)cc2Br)c1 (stereo not drawn) [Example 167]	≤ 10%	≤ 50%	–	–
O=C(NCCN(CC1CNC1)CC1CNC1)c1cc(OCCc2ccncc2)cc(OCc2cccnc2)c1 [Example 506, N-[2-[bis(azetidin-3-ylmethyl)amino]ethyl]-3-[2-(4-pyridyl)ethoxy]-5-(3-pyridylmethoxy)benzamide]	–	–	≤ 50%	–
c1cncc(COc2cc(CNCC3CNC3)cc(OCCN3CCOCC3)c2)c1 [Example 428]	–	–	≤ 50%	–
CN(CC(=O)O)Cc1cc(CNCC2CNC2)cc(OCc2ccc(Cl)cc2Br)c1 [Example 244]	–	–	≤ 50%	–
Oc1ncc(/C=C/c2ccc(Cl)cc2Br)cc1CNCC1CCNC1 (stereo not drawn) [Example 494, 5-[(E)-2-(2-bromo-4-chloro-phenyl)vinyl]-3-[(pyrrolidin-3-ylmethylamino)methyl]pyridin-2-ol]	≤ 10%	≤ 50%	–	–
c1cncc(COc2cc(CNCC3CCNC3)cc(OCCc3ccncc3)c2)c1 (stereo not drawn) [Example 427]	–	–	≤ 50%	–
CC(C)COc1cc(/C=C/c2cccnc2)cc(C(=O)CNCC2CCNC2)c1 (stereo not drawn) [Example 502, 1-[3-isobutoxy-5-[(E)-2-(3-pyridyl)vinyl]phenyl]-2-(pyrrolidin-3-ylmethylamino)ethanone]	–	–	≤ 50%	activity at 50 µM (P. aeruginosa PAO1 [2]): ≤ 50%
CC(C)COc1cc(/C=C/c2cccnc2)cc(CNCC2CCNC2)c1 (stereo not drawn) [Example 332]	≤ 10%	≤ 50%	–	activity at 50 µM (P. aeruginosa PAO1 [2]): ≤ 50%

SMILES	activity at 25 µM (E. coli ATCC25922 [1])	activity at 50 µM (P. aeruginosa PAO1 [3])	activity at 50 µM (E. coli ATCC25922 [4])	other results
O=C(O)c1cc(CNCC2CNC2)cc(OCc2ccc(Cl)cc2Br)c1 [Example 110]	–	–	≤ 50%	–
Clc1ccccc1COc1ccc(CNCC2CCNCC2)cc1 [Example 1]	–	–	≤ 50%	activity at 50 µM (P. aeruginosa PAO1 [2]): ≤ 50%
CC(C)COc1ccc(/C=C/c2ccc(Cl)cc2Br)cc1CNCC1CNC1 [Example 432]	≤ 10%	≤ 50%	–	–
Clc1ccc(COc2ccc(CCNCC3CNC3)cc2)c(Br)c1 [Example 100]	≤ 10%	–	≤ 50%	–
C=CCOc1cc(/C=C/c2ccc(Cl)cc2Br)cc(C(=O)NCCNC(=O)C2CNC2)c1 [Example 454]	≤ 10%	≤ 50%	–	–
C=CCOc1cc(/C=C/c2cccc(C#N)c2)cc(CNCC2CCNC2)c1 (stereo not drawn) [Example 305]	≤ 10%	≤ 50%	–	–
O=C(Nc1ccc(CNCC2CNC2)cc1Cl)c1ccc(Cl)cc1C(F)(F)F [Example 161]	–	–	≤ 50%	–
C=CCOc1cc(/C=C/c2cncc(C(=O)O)c2)cc(CNCC2CCNC2)c1 (stereo not drawn) [Example 449]	–	–	≤ 50%	–
C[N+](C)(Cc1cc(OCCc2c[nH]cn2)cc(OCc2ccc(Cl)cc2Br)c1)CC1CCNC1 (stereo not drawn) [Example 404]	≤ 10%	≤ 50%	–	–
Clc1ccc(COc2ccc(CNCC3CCNC3)cc2)c(Br)c1 (stereo not drawn) [Example 63]	≤ 10%	≤ 50%	–	–
Clc1ccc(COc2ccc(CNCC3CNC3)cc2)c(Br)c1 [Example 36]	≤ 10%	≤ 50%	–	–
Clc1ccc(COc2cc(CNCC3CCNC3)cc(OCCc3c[nH]cn3)c2)c(Br)c1 (stereo not drawn) [Example 251]	≤ 10%	≤ 50%	–	–
COCc1cc(CNCC2CNC2)cc(OCc2ccc(Cl)cc2Br)c1 [Example 124]	≤ 10%	–	–	activity at 50 µM (P. aeruginosa PAO1 [2]): ≤ 50%
C[N+](C)(CC(=O)O)Cc1cc(CNCC2CNC2)cc(OCc2ccc(Cl)cc2Br)c1 [Example 232]	–	–	≤ 50%	–
C=CCOc1cc(/C=C/c2cccs2)cc(CNCC2CCNC2)c1 (stereo not drawn) [Example 319]	≤ 10%	–	–	activity at 50 µM (P. aeruginosa PAO1 [2]): ≤ 50%
CC(C)(C)c1ccc(COc2ccc(CNCC3CCNCC3)cc2)cc1 [Example 57]	≤ 10%	–	–	activity at 50 µM (P. aeruginosa PAO1 [2]): ≤ 50%
O=C(CNCC1CCNC1)c1cccc(OCc2ccc(Cl)cc2Br)c1 (stereo not drawn) [Example 143]	–	–	≤ 50%	–
C[N+](C)(Cc1cc(OCCc2c[nH]cn2)cc(OCc2ccc(Cl)cc2Br)c1)CC1CNC1 [Example 389]	≤ 10%	≤ 50%	–	–
COC(=O)c1ccc(COc2ccc(CNCC3CNC3)cc2)c(Br)c1 [Example 87]	–	–	–	activity at 50 µM (E. coli ATCC25922 [1]): ≤ 50%; activity at 50 µM (P. aeruginosa PAO1 [2]): ≤ 50%
N#Cc1cncc(/C=C/c2cc(CNCC3CCNC3)cc(OCc3n[nH]c(=O)o3)c2)c1 (stereo not drawn) [Example 491, 5-[(E)-2-[3-[(2-oxo-3H-1,3,4-oxadiazol-5-yl)methoxy]-5-[(pyrrolidin-3-ylmethylamino)methyl]phenyl]vinyl]pyridine-3-carbonitrile]	–	–	≤ 50%	–
C=CCOc1cc(/C=C/c2ccc(N)cc2)nc(CNCC2CCNC2)c1 (stereo not drawn) [Example 475]	–	–	–	activity at 50 µM (E. coli ATCC25922 [1]): ≤ 50%; activity at 50 µM (P. aeruginosa PAO1 [2]): ≤ 50%
CC(C)COc1cc(CNCC2CCNC2)cc(S(=O)(=O)Cc2cccnc2)c1 (stereo not drawn) [Example 495]	–	–	≤ 50%	–

Source: US10464896B2, “Efflux-pump inhibitors and therapeutic uses thereof” (Basilea Pharmaceutica International AG, priority 2015, dated 2019)
